Measured values published in patent publication US10617734B2, “STAT3 and ERK signal pathway inhibitor comprising mogrosides and analogs thereof” (BEIJING UNIVERSITY OF AGRICULTURE, priority 2014, dated 2020).

Experiments:
[1] = test system: phosphorylated STAT3 (P-STAT3, Tyr705); assay: Western Blotting of phosphorylated STAT3 in U937 cells; type: cell-based; conditions: 10 μmol/L, 24 hours
Experimental: (§1) The inhibition of the STAT3 and ERK signal pathways achieved by Mogroside I E1, Mogroside II A2 and mogrol was detected by Western Blotting, specifically:
(§2) Group 1: histiocytic lymphoma U937 cells (1×10^6 cells/well) were inoculated into a 6-well culture plate for staying overnight, and 0 and 10 μmol/L of Mogroside I E1, Mogroside II A2 and mogrol were added respectively, and the culture was continued for 24 hours;
(§3) After the termination of the cell culture, the culture solution was removed, and the residue was washed with PBS (0.01 mol/L, pH 7.4), and then a cell lysis solution containing protease inhibitors was added at an amount of 50 μl/well, and the mixture was placed in an ice bath for lysis at 4° C. for 30 min and then centrifuged at 14000 r/min for 10 min, and then total proteins were obtained from the supernatant;
(§4) The protein concentrations were measured with bovine serum albumin (BSA) as the standard. 50 μg of the total proteins was separated by polyacrylamide gel electrophoresis with 12% […], electrophoretically transferred to a PVDF membrane (polyvinylidene fluoride membrane), and blocked for 1 h by 5% of skim milk (containing 0.1% of Tween 20), and then antibodies p-STAT3 (Tyr705) and p-Erk1/2 as well as β-actin were added, and the primary antibody was incubated at 4° C. overnight (β-actin was used as reference in loading amount); the membrane was washed for 3 times with TBS-T, 5 min each time; secondary antibody marked by horseradish peroxidase (HRP) was added for incubation at room temperature for 1 h, the membrane was washed for 3 times with a wash solution (TBS-T), 10 min each time, and then ECL was added for incubation in dark for 5 min, and subsequently, a fluorescence imaging analyzer was used for image development and scanning analysis, and the results of Western Blotting detection are shown in FIGS. 4 to 6.

[2] = test system: phosphorylated ERK1/2 (P-ERK1/2); assay: Western Blotting of phosphorylated ERK1/2 in U937 cells; type: cell-based; conditions: 10 μmol/L, 24 hours
Experimental: as §1, §2, §3, §4

[3] = test system: phosphorylated ERK1/2 (P-ERK1/2); assay: Western Blotting of phosphorylated ERK1/2 in A875 cells; type: cell-based, human; conditions: melanoma A875 cells, 10 μmol/L, 24 hours
Experimental: as §1
Group 2: human melanoma A875 cells (1×10^6 cells/well) were inoculated into a 6-well culture plate for staying overnight, and 0 and 10 μmol/L of Mogroside I E1, Mogroside II A2 and mogrol were added respectively, and the culture was continued for 24 hours;
as §3, §4

[4] = test system: anti-apoptotic protein Bcl-2; assay: Western Blotting of Bcl-2 in U937 cells; type: cell-based; conditions: 10 μmol/L, 24 h
Experimental: (§5) The STAT3 and ERK signal pathways can regulate cyclins and apoptosis genes, and in order to verify the effects of […] and mogrol, the expression status of downstream genes of STAT3 and ERK was detected, wherein the influences of the three mogrosides and analogs thereof, i.e. Mogrol I E1, Mogrol II A2 and mogrol, on Bcl-2 and P21 proteins in the histiocytic lymphoma U937 cells, human melanoma A875 cells and leukemia cells K562 were determined, respectively.
(§6) The regulation of Bcl-2 and P21 proteins by mogrosides and analog thereof to the was detected by Western Blotting, specifically: histiocytic lymphoma U937 cells, human melanoma A875 cells and leukemia cells K562 (1×10^6 cells/well) were inoculated into a 6-well culture plate overnight, and 0 and 10 μmol/L of the mogrosides and analogs thereof were added respectively, and kept cultured for 24 h. […]
(§7) The protein concentration was measured with bovine serum albumin (BSA) as the standard. 50 μg of the total proteins were separated by polyacrylamide gel electrophoresis with 12% SDS, and electrophoretically transferred to a PVDF membrane (polyvinylidene fluoride membrane), and blocked for 1 h by 5% of skim milk (containing 0.1% of Tween 20), and then antibodies P21, Bcl-2 and β-actin were added, wherein the primary antibody was incubated at 4° C. overnight (β-actin was used as reference loading amount); the membrane was washed for 3 times with TBS-T, 5 min each time; secondary antibody marked by horseradish peroxidase (HRP) was added for incubation at room temperature for 1 h, the membrane was washed with rinse solution (TBS-T) for 3 times, 10 min each time, and then ECL was added for incubation in dark for 5 min, and subsequently, a fluorescence imaging analyzer was used for image development and scanning analysis.

[5] = test system: cycle regulatory protein P21; assay: Western Blotting of P21 in A875 cells; type: cell-based; conditions: human melanoma A875 cells, 10 μmol/L, 24 h
Experimental: as §5, §6, §7

[6] = test system: anti-apoptotic protein Bcl-2; assay: Western Blotting of Bcl-2 in K562 cells; type: cell-based, human; conditions: leukemia cells K562, 10 μmol/L, 24 h
Experimental: as §5, §6, §7

[7] = test system: histiocytic lymphoma U937 cells; assay: Cell cycle distribution, PI staining, flow cytometer; type: cell-based; conditions: 24 h
From the text: (§8) The influences of Mogroside I E1, Mogroside II A2 and mogrol on the cell cycle distribution of the histiocytic lymphoma U937 cells, the human melanoma A875 cells and the leukemia cells K562.
(§9) The cell cycle arrest achieved by drugs is an important approach to the inhibition of cancer cell proliferation.

[8] = test system: human melanoma A875 cells; assay: as above; type: cell-based
From the text: as §8, §9

[9] = test system: human melanoma A875 cells; assay: Cell apoptosis, Annexin V-FITC/PI, flow cytometer; type: cell-based; conditions: 10 μmol/L, 24 h
Experimental: Mogroside I E1, Mogroside II A2 and mogrol) for 24 h, cells were collected and washed twice with 200 μl of cold PBS, and then the cells were collected again; 100 μl of binding buffer was added for re-suspending the cells, and after the addition of 2 μl of Annexin V-FITC and well mixing, the resulting mixture was placed in dark at room temperature for 10 min, and then 5 μl of propidium iodide (PI) was added and then well mixed; the mixture was placed in dark at room temperature for 10 min, and detected by flow cytometer, and the results are shown in FIGS. 13-15.

[10] = test system: leukemia cells K562; assay: Cell morphology, Hoechst 33258 staining, fluorescence microscope; type: cell-based, human; conditions: leukemia cells K562, 10, 100 and 250 μmol/L, 24-hour culture
Experimental: Lymphoma U937 cells, human melanoma A875 cells and leukemia cells K562 in logarithmic growth phase were selected, and the concentrations of the cells were adjusted to 1×10^4 cells/mL, and the cells were transferred to a 6-well plate for culture, and after the 24-hour culture, drugs were added to achieve final concentrations of 0, 10, 100 and 250 μmol/L, wherein only whole medium was added to the negative control groups, while Mogroside II A2 was added to the positive control groups, after 24-hour culture, waste solution was removed, and fixing solution was added to each well for fixing for 25 min, and then the resulting mixture was washed twice, 3 min each time, and then Hoechst 33258 staining solution was added for staining in dark at room temperature for 30 min, and the cell morphology variation was observed using a fluorescence microscope.

`C[C@H](CC[C@@H](O)C(C)(C)O)[C@H]1CC[C@@]2(C)[C@@H]3CC=C4[C@@H](CC[C@H](O)C4(C)C)[C@]3(C)[C@H](O)C[C@]12C` [mogrol] was tested. Which “expression level of phosphorylated STAT3 (P-STAT3)” value [1] did it give?
The value was “significantly decreased”.

What about the “expression level of phosphorylated ERK1/2 (P-ERK1/2)” value [2] of the same compound?
Its value is “significantly decreased”.

What about the “expression level of phosphorylated ERK1/2 (P-ERK1/2)” value [3] of the same compound?
Its value is “significantly decreased”.

And the “expression of anti-apoptotic protein Bcl-2” value [4]?
Its value is “significantly down-regulated”.

What about the “expression of cycle regulatory protein P21” value [5] of the same compound?
Its value is “significantly up-regulated”.

And the “expression of anti-apoptotic protein Bcl-2” value [6]?
The value was “significantly down-regulated”.

And the “proportion of cells in G0/G1 phase with the rise of the concentration” value ([7]; U937 cells, 0, 1, 10, 150 and 250 μmol/L)?
Its value is “gradually increased”.

What about the “cell cycle distribution (proportion of cells of G0/G1 phase)” value ([7]; U937 cells, 10 μmol/L) of the same compound?
The value was “G0/G1 arrest”.

What about the “cell cycle distribution (proportion of cells in the G0/G1 phase)” value ([8]; human melanoma A875 cells, 10 μmol/L, 24 h) of the same compound?
The value was “G0/G1 arrest”.

What about the “proportion of cells in the G0/G1 phase with the rise of the concentration” value ([8]; melanoma A875 cells, different concentrations (FIG. 12)) of the same compound?
Its value is “gradually increased”.

What about the cell apoptosis [9] of the same compound?
The cell apoptosis was “induce the apoptosis”.

And the “cell morphology variation (Hoechst 33258)” value [10]?
Its value is “identical to the results of Mogroside II A2”.
